# Literature values, collected in patent US20180185375A1, “COMPOSITIONS AND METHODS FOR THE TREATMENT OF SUBSTANCE USE DISORDERS, ADDICTION, AND PSYCHIATRIC DISORDERS” (EMBERA NEUROTHERAPEUTICS, INC., priority 2015, published 2018).
# Assays:
# [1] = tested on: cocaine self-administration in rats
# cortisol levels = conditions: healthy subjects
# adrenal gland = conditions: in vivo
# [2] = 12.5 mg/kg metyrapone tested alone, rats
smiles,measurement,setting,value
Cc1nnc2n1-c1ccc(Cl)cc1C(c1ccccc1)=NC2 [alprazolam],effect of the dose alone on cocaine self-administration,"[1]; alprazolam 1.0 mg/kg, ip, alone",ineffective
CCOC(=O)c1cncn1[C@H](C)c1ccccc1 [etomidate],time after which infusion resulted in significant suppression of cortisol levels,cortisol levels,5 h
same,time of maximal effects on cortisol levels,cortisol levels; infusion,11 h
CC(C)(C(=O)c1cccnc1)c1cccnc1 [metyrapone],effect on cocaine-maintained responding,[1]; [2],no effect
same,effect on food-maintained responding,[1]; [2],no effect
Clc1ccc(C(c2ccccc2Cl)C(Cl)Cl)cc1 (stereo not drawn) [Mitotane],doses at which it is an adrenolytic agent,adrenal gland,greater than 4 g per day
